Source: US11312718B2, “Formulations of (S)-3-(1-(9H-purin-6-ylamino)ethyl)-8-chloro-2-phenylisoquinolin-1(2H)-one” (Infinity Pharmaceuticals, Inc., priority 2011, dated 2022)

How the values were obtained:
[1] = Dynamic vapor sorption (DVS) / moisture sorption analysis; type: physicochemical
Description: Compounds and polymorphs provided herein can be characterized by moisture sorption analysis. This analysis was performed using a Hiden IGAsorp Moisture Sorption instrument. Moisture sorption experiments were carried out at about 25° C. by performing an adsorption scan from about 40% to about 90% RH in steps of about 10% RH and a desorption scan from about […] to about 0% RH in steps of about −10% RH. A second adsorption scan from about 10% to about 40% RH was performed to determine the moisture uptake from a drying state to the starting humidity. Samples were allowed to equilibrate for about four hours at each point or until an asymptotic weight was reached. After the isothermal sorption scan, samples were dried for about one hour at elevated temperature (about 60° C.) to obtain the dry weight. XRPD analysis on the material following moisture sorption was performed to determine the solid form.
Dynamic vapor sorption (DVS) analysis was performed on polymorph Forms A, B, C, D, and E using the DVS instrument and parameters as described above. […] Hysteresis indicative of hemi-hydrate formation was observed.

[2] = 1 week
Description: (§1) Forms A, B, C, D, and E were held at 60° C. for 10 days followed by analysis by XRPD. In each case, 8 mL vials were charged with approximately 20 mg of material, with the exception of Form B for which 10 mg of material was charged. Samples equilibrated in an oven for 10 days.

[3] = Grinding stability (mortar and pestle); type: physicochemical; conditions: by hand, 2 and 5 min, XRPD
Description: Forms A, C, D, and E were subjected to grinding experiments performed using a mortar and pestle by hand. Samples were lightly grounded for 2 minutes then analyzed by XRPD. Material was then returned to the mortar and pestle and grounded for an additional 3 minutes, for a total of 5 minutes of grinding, and re-analyzed by XRPD.

[4] = Thermal stability (60° C.); conditions: held at 60° C. for 10 days
Description: as §1

[5] = tested on: B6.Sle1z.Sle3z model; conditions: cited from earlier work
[6] = tested on: leukemic cells from early passage p190 transduced cultures; conditions: at about 70 mg/kg twice daily; cited from earlier work

C[C@H](Nc1ncnc2[nH]cnc12)c1cc2cccc(Cl)c2c(=O)n1-c1ccccc1 [Form E, (S)-3-(1-(9H-purin-6-ylamino)ethyl)-8-chloro-2-phenylisoquinolin-1(2H)-one]
DVS ([1]; @ 60% RH): 1.9% @ 60% RH
DVS ([1]; @ 90% RH): 2.2% @ 90% RH
hygroscopicity ([1]; DVS): slightly hygroscopic
moisture uptake at 60% RH ([1]; DVS, about 25° C., 60% RH): 1.9 wt %
moisture uptake at 90% RH ([1]; DVS, about 25° C., 90% RH): 2.2 wt %
Thermal stability (60° C.) [2]: stable after 1
Grinding (mortar & pestle) [3]: amorphous
polymorph Form changes by XRPD [4]: No polymorph Form changes were observed

CO[C@H]1C[C@@H]2CC[C@@H](C)[C@@](O)(O2)C(=O)C(=O)N2CCCC[C@H]2C(=O)O[C@H]([C@H](C)C[C@@H]2CC[C@@H](OCCO)[C@H](OC)C2)CC(=O)[C@H](C)/C=C(\C)[C@@H](O)[C@@H](OC)C(=O)[C@H](C)C[C@H](C)/C=C/C=C/C=C/1C [RAD001]
lupus symptoms [5]: ameliorate lupus symptoms

Cc1ccc(NC(=O)c2ccc(CN3CCN(C)CC3)cc2)cc1Nc1nccc(-c2cccnc2)n1 [imatinib]
leukemogenesis [6]: delay but not cure leukemogenesis
